This is an account of results in patent publication US8309550B2, “Kinase inhibitors and their use as pharmaceutical agents” (Shanghai Genomics, Inc., priority 2011, dated 2012).

The test system of one experiment is H460-luc. Description: 72 h MTT cytotoxicity assay H460-luc. Type of experiment: cell-based. The conditions noted are these: Homo sapiens, NCI-H460-Luc; H460-luc, 72 hrs; read-out: Cytotoxicity, MTT 72 hrs, IC50 H460-luc. The method in brief:
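Cells were seeded at 4000 per well overnight, then given ½ dilution series in duplicate (0.025% final DMSO) for 72 hrs at 37° C. MTT was added for 4 hr, the dye was solubilised in DMSO and absorbance read at 562 nm. IC50 came from sigmoid curve fitting.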
Background: Tetrazolium assays rely on reduction of a dye to a coloured formazan, in cell work by metabolically active cells.

For the next experiment, the target named is T1, Aurora A (Homo sapiens, UniProt O14965).
T1 construct: purchased Invitrogen PV3612
T1 sequence (O14965 1-403): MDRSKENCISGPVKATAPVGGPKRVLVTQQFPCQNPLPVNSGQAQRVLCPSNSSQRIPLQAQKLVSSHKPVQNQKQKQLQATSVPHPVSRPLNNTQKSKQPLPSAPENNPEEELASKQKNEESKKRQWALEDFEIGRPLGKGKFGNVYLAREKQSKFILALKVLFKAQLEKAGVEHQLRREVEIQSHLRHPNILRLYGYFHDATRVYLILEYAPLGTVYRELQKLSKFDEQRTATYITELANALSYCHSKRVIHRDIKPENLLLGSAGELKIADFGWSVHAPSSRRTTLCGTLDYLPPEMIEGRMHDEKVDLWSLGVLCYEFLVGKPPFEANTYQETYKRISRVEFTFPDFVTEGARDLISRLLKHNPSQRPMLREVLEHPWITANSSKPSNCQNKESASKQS
Description: Z'-LYTE kinase assay Aurora A. Type of experiment: biochemical. The conditions noted are these: read-out: Kinase inhibition, IC50 Aurora A. The method in brief:
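Aurora A inhibition was measured by Z′-LYTE™. After a one-hour kinase reaction at room temperature, development buffer was added for another hour, then stop buffer. A VICTOR-3 reader recorded the 445 nm/520 nm emission ratio with excitation at 400 nm. Phosphorylation was derived from this ratio, and IC50 was obtained by sigmoid fitting in Origin 6.0.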

The next experiment has as its target T2, CDK5/p35 (Homo sapiens, UniProt Q00535).
T2 construct: purchased Invitrogen PV3000
The experiment can be described thus: Z'-LYTE kinase assay CDK5/p35. Type of experiment: biochemical. The conditions noted are these: read-out: Kinase inhibition, IC50 CDK5/p35. Summed up: (§1)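 Z′-LYTE FRET assay with recombinant human enzymes; CDK1/cyclinB and CDK5/p35 at 0.8 ng/reaction on Ser/Thr 12 peptide. Compound and kinase incubated 1 hr at room temperature in 20 μM ATP, HEPES pH 7.5, MgCl2, EGTA, Brij-35, then developed 1 hr. Phosphorylation derived from 445/520 nm emission ratio (400 nm excitation); IC50 from sigmoid curve fit.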

Another experiment has as its target Aurora B (Homo sapiens, UniProt Q96GD4). Description: Kinase assay Aurora B (Table I). The class given is biochemical. The conditions noted are these: read-out: Kinase inhibition, IC50 Aurora B.
A further experiment concerns the target T3, CDK2/cyclinA (Homo sapiens, UniProt P24941).
T3 construct: purchased Invitrogen PV3267
The experiment can be described thus: Z'-LYTE kinase assay CDK2/cyclinA. Type of experiment: biochemical. The conditions noted are these: read-out: Kinase inhibition, IC50 CDK2A. The method in brief: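 This Z′-LYTE™ fluorescence assay measured inhibition of human CDK2/cyclinA. After the 1 hr kinase reaction, development buffer was added for another hour at room temperature, then stop buffer. The 445 nm/520 nm emission ratio, excited at 400 nm, was read on a VICTOR-3 Multilabel Reader and converted to phosphorylation. Compounds were prepared as 10 mM DMSO stocks.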

A further experiment addresses T4, CDK1/cyclinB (Homo sapiens, UniProt P06493).
T4 construct: purchased Invitrogen PV3292
The experiment can be described thus: Z'-LYTE kinase assay CDK1/cyclinB. Type of experiment: biochemical. As to conditions: read-out: Kinase inhibition, IC50 CDK1B. The method in brief: as §1

T2 sequence (Q00535 whole entry): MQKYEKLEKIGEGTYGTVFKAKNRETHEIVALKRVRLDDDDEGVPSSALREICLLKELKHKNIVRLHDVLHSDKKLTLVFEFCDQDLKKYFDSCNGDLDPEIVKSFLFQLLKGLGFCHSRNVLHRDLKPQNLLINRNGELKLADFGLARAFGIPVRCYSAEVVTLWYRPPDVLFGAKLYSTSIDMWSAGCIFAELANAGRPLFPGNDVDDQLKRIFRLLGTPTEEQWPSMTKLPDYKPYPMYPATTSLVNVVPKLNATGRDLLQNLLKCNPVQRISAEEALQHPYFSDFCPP
T2 sequence (Q15078 whole entry partner): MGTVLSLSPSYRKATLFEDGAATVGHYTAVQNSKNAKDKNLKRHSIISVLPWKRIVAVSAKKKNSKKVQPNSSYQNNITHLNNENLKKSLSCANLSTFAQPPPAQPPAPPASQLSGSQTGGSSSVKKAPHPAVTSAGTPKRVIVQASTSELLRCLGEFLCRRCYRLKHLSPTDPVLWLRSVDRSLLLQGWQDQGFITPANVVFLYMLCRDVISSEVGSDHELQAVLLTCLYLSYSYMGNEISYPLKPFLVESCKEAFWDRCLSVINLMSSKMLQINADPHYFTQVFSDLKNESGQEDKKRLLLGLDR
Chain of Aurora B (Q96GD4 whole entry): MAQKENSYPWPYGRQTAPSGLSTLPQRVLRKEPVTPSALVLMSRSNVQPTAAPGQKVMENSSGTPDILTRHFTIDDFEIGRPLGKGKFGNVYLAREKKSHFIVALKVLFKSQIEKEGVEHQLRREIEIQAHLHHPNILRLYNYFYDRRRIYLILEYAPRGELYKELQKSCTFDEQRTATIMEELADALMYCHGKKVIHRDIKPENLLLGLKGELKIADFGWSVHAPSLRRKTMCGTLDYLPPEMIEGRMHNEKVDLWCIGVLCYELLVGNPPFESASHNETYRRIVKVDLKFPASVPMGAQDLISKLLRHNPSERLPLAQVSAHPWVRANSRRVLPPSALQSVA
T4 sequence (P06493 whole entry): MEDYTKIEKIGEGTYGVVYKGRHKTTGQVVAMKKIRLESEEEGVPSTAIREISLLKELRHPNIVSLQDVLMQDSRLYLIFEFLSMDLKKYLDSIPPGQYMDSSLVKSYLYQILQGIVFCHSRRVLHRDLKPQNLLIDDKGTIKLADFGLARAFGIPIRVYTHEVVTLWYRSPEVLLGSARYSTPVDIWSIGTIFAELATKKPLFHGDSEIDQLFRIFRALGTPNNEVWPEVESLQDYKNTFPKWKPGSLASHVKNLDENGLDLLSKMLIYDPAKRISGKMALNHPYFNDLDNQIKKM
T4 sequence (P14635 whole entry partner): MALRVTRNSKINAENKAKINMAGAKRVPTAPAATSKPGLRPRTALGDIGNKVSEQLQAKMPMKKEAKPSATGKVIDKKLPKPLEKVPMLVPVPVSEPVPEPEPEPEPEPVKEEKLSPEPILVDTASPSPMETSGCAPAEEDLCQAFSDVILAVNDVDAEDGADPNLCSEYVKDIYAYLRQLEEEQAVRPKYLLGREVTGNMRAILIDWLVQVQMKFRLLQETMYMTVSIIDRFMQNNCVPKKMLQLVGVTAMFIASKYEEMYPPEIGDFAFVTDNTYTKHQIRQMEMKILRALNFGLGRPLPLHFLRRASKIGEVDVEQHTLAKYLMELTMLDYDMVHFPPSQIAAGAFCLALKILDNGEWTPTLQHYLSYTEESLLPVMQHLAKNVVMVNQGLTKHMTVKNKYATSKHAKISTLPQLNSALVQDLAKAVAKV

As for `CCCn1cc(-c2ccnc(Nc3cccc(S(N)(=O)=O)c3)n2)c2nc(Cl)cc(C)c21` [Compound 42, 3-(4-(5-Chloro-7-methyl-1-propyl-1H-pyrrolo[3,2-b]pyridin-3-yl)pyrimidin-2-ylamino)benzenesulfonamide], the IC50 is 2000 nM in the experiment on H460-luc; 98 nM on Aurora A; more than 10000 nM at CDK5/p35; 190 nM on Aurora B; more than 10000 nM on CDK2/cyclinA; 6840 nM on CDK1/cyclinB.

Consider `CCCn1cc(-c2ccnc(Nc3ccc(S(N)(=O)=O)cc3)n2)c2ccncc21` [Compound 112, 4-(4-(1-Propyl-1H-pyrrolo[2,3-c]pyridin-3-yl)pyrimidin-2-ylamino)benzenesulfonamide], for which the IC50 came out at 20 nM in the experiment on H460-luc; 820 nM on Aurora A; 1.3 nM at CDK5/p35; 1.6 nM at Aurora B; 10 nM on CDK2/cyclinA; 0.4 nM on CDK1/cyclinB.
